pIC50: −log10 of the molar value.

The first assay has as its system bleomycin-induced mouse lung disease model. Description: Lung and spleen coefficients, 24-h modeling. Format: in vivo, C57 mice. Conditions: 90 mg/kg, effect better than that of Dex. The procedure:
Animals of 24-h modeling were randomly divided into 5 groups according to the table below, 3 animals per control group and 5 animals per test group.
Drug administration began 24 h or 7 d after modeling. […] The day of the first administration was counted as D1, the next day as D2, and so forth. The normal groups and Model groups were given 200 µL of normal saline daily by gavage administration.
Method: after being euthanized, the animals were dissected, and the heart, liver, spleen, lung and kidney were weighed.
In this experiment, 105 C57 mice were randomly selected and subjected to organ drip administration of a single dose of bleomycin at 2.5 mg/kg for 24 h or 7 d for induction. After 7 days of induction, 3 model mice were randomly selected and dissected to determine whether the modeling was successful. After modeling, the survival of the mice was recorded. The living states of the mice were observed and their body weight was measured at a fixed time.
A normal control group comprised 3 mice.
As for `O=c1c2ccccc2[se]n1CCCCn1[se]c2ccccc2c1=O` [BS1801], the “Effect on lung coefficient (in words)” value was “significantly reduce increases in the lung coefficient”.

The next assay has as its target 2019-nCoV 3CLpro protein (Severe acute respiratory syndrome coronavirus 2, UniProt P0DTD1). Description: 2019-nCoV 3CLpro protein activity, fluorescence method with fluorescent polypeptide substrate. The class given is biochemical.
Details: not given
For the compound `O=c1c2cc(O)ccc2[se]n1CCCCn1[se]c2ccc(O)cc2c1=O`, the pIC50 is 7.38.

For `O=c1c2ccccc2[se]n1-c1ccc(S(=O)(=O)n2[se]c3ccccc3c2=O)cc1`, the pIC50 is 5.91.

For `O=c1c2ccccc2[se]n1CCCCn1[se]c2ccccc2c1=O` [drawing 188], the negative logarithm of the IC50 (pIC50) is 6.95. Compared with the last compound, the pIC50 is 1.04 log units higher.

Compound `O=c1c2ccccc2[se]n1CCCCCCCCCCCCn1[se]c2ccccc2c1=O` showed a negative-log IC50 (pIC50) of 7.45.

As to `O=c1c2ccccc2[se]n1CCCn1[se]c2ccccc2c1=O`, the pIC50 is 6.94.

The compound `O=c1c2ccccc2[se]n1CCSSCCn1[se]c2ccccc2c1=O` showed a pIC50 of 5.84. Compared with the last compound, the pIC50 is 1.10 log units lower.

`Cc1[nH]c(/C=C2\C(=O)Nc3c(F)cccc32)c(C)c1C(=O)OCCn1[se]c2ccccc2c1=O` had a negative logarithm of the IC50 (pIC50) of 5.79.

Turning to `O=c1c2ccccc2[se]n1CCCCCn1[se]c2ccccc2c1=O`, the negative logarithm of the IC50 (pIC50) was 7.06.

The same assay, now with this note: read-out: IC50 (converted).
For `O=c1c2ccccc2[se]n1CCn1[se]c2ccccc2c1=O`, the IC50 is 1230 nM.

The record behind these values is patent US20230210819A1, “USE OF BENZISOSELAZOLE DERIVATIVE FOR ANTI-CORONAVIRUS AND CONTROL OF INTERSTITIAL LUNG DISEASE (ILD) RELATED TO CORONAVIRUS” (SHANGHAI YUANXI MEDICINE CORP., priority 2020, published 2023).
